Molecules are shown by their SMILES.

The target of this assay is T1, human URAT1 (Homo sapiens, UniProt Q96S37).
T1 construct: Human URAT1 full length cDNA was subcloned to expression vector pcDNA3.1; expressed in transfected cells; host or cells: HEK293 cells (pcDNA3.1, geneticin-selected)
T1 sequence (Q96S37 1-553): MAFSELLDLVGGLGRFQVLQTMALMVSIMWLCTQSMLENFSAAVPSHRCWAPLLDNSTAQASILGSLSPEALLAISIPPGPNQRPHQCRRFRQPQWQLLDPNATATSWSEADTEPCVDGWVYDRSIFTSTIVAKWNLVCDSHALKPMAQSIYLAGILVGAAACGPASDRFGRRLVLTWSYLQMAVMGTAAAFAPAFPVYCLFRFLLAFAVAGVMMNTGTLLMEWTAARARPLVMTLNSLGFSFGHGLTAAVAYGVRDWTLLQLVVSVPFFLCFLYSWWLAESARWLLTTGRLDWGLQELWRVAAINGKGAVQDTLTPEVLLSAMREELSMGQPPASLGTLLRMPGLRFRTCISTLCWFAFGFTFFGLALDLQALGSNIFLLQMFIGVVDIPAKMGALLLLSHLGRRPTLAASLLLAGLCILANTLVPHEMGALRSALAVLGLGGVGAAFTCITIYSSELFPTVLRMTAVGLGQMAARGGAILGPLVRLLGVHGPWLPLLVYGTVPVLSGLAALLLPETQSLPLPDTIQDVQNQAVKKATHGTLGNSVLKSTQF
Description: Uric acid transport inhibitory test using human URAT1-expressing cells. It is filed as cell-based. Particulars: human URAT1 expressing HEK293 cells, uptake of 14C-labeled uric acid for 5 min, room temperature; read-out: hURAT1 (IC50, concentration necessary for inhibiting the uric acid transport rate by 50%). The text has this:
Reference Experimental Example 1 Uric Acid Transport Inhibitory Test Using Human Urat1-Expressing Cells
Human URAT1 full length cDNA was subcloned to expression vector pcDNA3.1 and human URAT1 gene was transfected into human embryonic kidney derived cell line (HEK293 cells) by liposome method using Lipofectamine2000. Simultaneously, HEK293 cells transfected with expression vector pcDNA3.1 alone (hereinafter mock cells) were also produced. HEK293 cells expressing human URAT1 gene or mock cells were selected with geneticin resistance as an index. The functional expression of human URAT1 gene was confirmed by a method similar to the following method, using transport of uric acid labeled with ^14C into the cells as an index.
Human URAT1 expressing HEK293 cells or mock cells were cultured in Dulbecco's modified Eagle's MEM medium (high glucose) containing 10% fetal bovine serum, 0.5 mg/mL geneticin sulfate, 100 units/mL penicillin and 100 μg/mL streptomycin under the conditions of 37° C. and 5% CO2 in an incubator. The cells were plated in a 96 well plate (poly-D-Lysine coated) at 1×10^5 cells/well and the following uric acid transport inhibitory test was performed 24 hr later. This test was performed at room temperature.
After the medium was removed by aspiration from each well, the cells were washed once with Hank's Balanced Salt Solution (HBSS) and preincubated with HBSS ([…]) for 5 min. HBSS was aspirated and an assay buffer (wherein NaCl in the above-mentioned HBSS had been substituted with Na-gluconate) containing various concentrations of the Example compound and a radioactive ligand (uric acid labeled with 14C; final concentration […]) was added to each well at […] and an uptake reaction was carried out for 5 min. After the reaction, the cells were washed twice with ice-cold HBSS ([…]), and Microscin ti TM 20 (PerkinElmer) was added at […]. The cells were lysed by stirring and the radioactivity of each well was measured in a liquid scintillation counter (TOP COUNT, Packard).
The uric acid transport rate (%) of the Example compound at each concentration was calculated relative to the radioactivity (difference in radioactivity between human URAT1 expressing HEK293 cells and mock cells without addition of Example compound (DMSO addition)) showing URAT1 specific uric acid transport as 100%, and the concentration (IC50) of the Example compound necessary for inhibiting the uric acid transport rate by 50% was determined. In Table-Table, “+++” means IC50 value of less than 100 nM, “++” means IC50 value of 100 nM to less than 1000 nM, and “+” means IC50 value of 1000 nM to less than 3000 nM.
In the case of `O=C(c1ccc(O)c(Cl)c1)N1CCOc2ccccc21` [Example 1, (3-chloro-4-hydroxyphenyl)-(2,3-dihydrobenzo[1,4]oxazin-4-yl)-methanone], the IC50 was < 100 nM.
In the case of `O=C(c1ccc(O)c(Br)c1)N1CCOc2ccccc21` [Example 2, (3-bromo-4-hydroxyphenyl)-(2,3-dihydrobenzo[1,4]oxazin-4-yl)-methanone], the IC50 was < 100 nM.
In the case of `O=C(c1cc(Cl)c(O)c(Cl)c1)N1CCOc2ccccc21` [Example 3, (3,5-dichloro-4-hydroxyphenyl)-(2,3-dihydrobenzo[1,4]oxazin-4-yl)-methanone], the IC50 is < 100 nM.
In the case of `O=C(c1cc(Br)c(O)c(Br)c1)N1CCOc2ccccc21` [Example 4, (3,5-dibromo-4-hydroxyphenyl)-(2,3-dihydrobenzo[1,4]oxazin-4-yl)-methanone], the IC50 is < 100 nM.
As for `O=C(c1cc(I)c(O)c(I)c1)N1CCOc2ccccc21` [Example 5, (2,3-dihydrobenzo[1,4]oxazin-4-yl)-(4-hydroxy-3,5-diiodophenyl)-methanone], the figure is < 100 nM; as for `O=C(c1cc(F)c(O)c(F)c1)N1CCOc2ccccc21` [Example 6, (3,5-difluoro-4-hydroxyphenyl)-(2,3-dihydrobenzo[1,4]oxazin-4-yl)-methanone], 100 to 1000 nM.
Turning to `Cc1cc(C(=O)N2CCOc3ccccc32)cc(C)c1O` [Example 7, (2,3-dihydrobenzo[1,4]oxazin-4-yl)-(4-hydroxy-3,5-dimethylphenyl)-methanone], the IC50 lay within 100 to 1000 nM.
In the case of `O=C(c1cc(Cl)c(O)c(Cl)c1)N1CCSc2ccccc21` [Example 8, (3,5-dichloro-4-hydroxyphenyl)-(2,3-dihydrobenzo[1,4]thiazin-4-yl)-methanone], the IC50 is 100 to 1000 nM.
As for `O=C(c1cc(Cl)c(O)c(Cl)c1)N1CCS(=O)(=O)c2ccccc21` [Example 10, (3,5-dichloro-4-hydroxyphenyl)-(1,1-dioxo-2,3-dihydro-1H-1λ^6-benzo[1,4]thiazin-4-yl)-methanone], the figure is 100 to 1000 nM.
With `Oc1c(Cl)cc(C(=S)N2CCOc3ccccc32)cc1Cl` [Example 11, (3,5-dichloro-4-hydroxyphenyl)-(2,3-dihydrobenzo[1,4]oxazin-4-yl)-methanethione] the figure was < 100 nM.
As to `Cc1ccc2c(c1)N(C(=O)c1cc(Cl)c(O)c(Cl)c1)CCO2` [Example 12, (3,5-dichloro-4-hydroxyphenyl)-(6-methyl-2,3-dihydrobenzo[1,4]oxazin-4-yl)-methanone], the IC50 is < 100 nM.
Turning to `Cc1ccc2c(c1)OCCN2C(=O)c1cc(Cl)c(O)c(Cl)c1` [Example 13, (3,5-dichloro-4-hydroxyphenyl)-(7-methyl-2,3-dihydrobenzo[1,4]oxazin-4-yl)-methanone], the IC50 is 100 to 1000 nM.
Take `Cc1cccc2c1N(C(=O)c1cc(Cl)c(O)c(Cl)c1)CCO2` [Example 14, (3,5-dichloro-4-hydroxyphenyl)-(5-methyl-2,3-dihydrobenzo[1,4]oxazin-4-yl)-methanone]: the IC50 was < 100 nM.
Take `Cc1cccc2c1OCCN2C(=O)c1cc(Cl)c(O)c(Cl)c1` [Example 15, (3,5-dichloro-4-hydroxyphenyl)-(8-methyl-2,3-dihydrobenzo[1,4]oxazin-4-yl)-methanone]: the IC50 was < 100 nM.
`O=C(c1cc(Cl)c(O)c(Cl)c1)N1CCOc2ccc3ccccc3c21` [Example 16, (3,5-dichloro-4-hydroxyphenyl)-(2,3-dihydronaphtho[2,1-b][1,4]oxazin-1-yl)-methanone]: the IC50 was < 100 nM.
As to `COc1ccc2c(c1)N(C(=O)c1cc(Cl)c(O)c(Cl)c1)CCO2` [Example 17, (3,5-dichloro-4-hydroxyphenyl)-(6-methoxy-2,3-dihydrobenzo[1,4]oxazin-4-yl)-methanone], the IC50 was < 100 nM.
Turning to `COc1ccc2c(c1)OCCN2C(=O)c1cc(Cl)c(O)c(Cl)c1` [Example 18, (3,5-dichloro-4-hydroxyphenyl)-(7-methoxy-2,3-dihydrobenzo[1,4]oxazin-4-yl)-methanone], the IC50 lay in the range of 100 to 1000 nM.

For the origin of these results see patent publication US20080064871A1, “Production Method of Nitrogen-Containing Fused Ring Compounds” (Japan Tobacco Inc., priority 2006, published 2008).
